Columns and labels:
[1] = tested on: Propionibacterium acnes; test: Antimicrobial efficacy in analogy to challenge test NF EN ISO11930, P. acnes; type: cell-based; conditions: 0.1 wt.-% single active; for Propionibacterium acnes colony count: 24 h after contamination, 22° C., initial count 310000 cfu/ml
Description: The wells are contaminated with either Propionibacterium acnes or Escherichia coli at 2.5*10^5 to 5.6*10^5 cfu/ml to obtain the initial contamination as outlined in table 1. […] (The term “Log reduction” is a well-known mathematical term used to show the relative number of cells, germs, microbes, etc., reduced in or on something, e.g. a 2 log reduction means the number of microbes is 100 times smaller and a 3 log reduction means the number of microbes is 1000 times smaller).

[2] = tested on: Escherichia coli; test: Antimicrobial efficacy in analogy to challenge test NF EN ISO11930, E. coli; type: cell-based; conditions: 0.1 wt.-% single active; for Escherichia coli colony count: 24 h after contamination, 22° C., initial count 250000 cfu/ml
Description: The wells are contaminated with either Propionibacterium acnes or Escherichia coli at 2.5*10^5 to 5.6*10^5 cfu/ml to obtain the initial contamination as outlined in table 1.

SMILES | Propionibacterium acnes colony count [1] | Log reduction ([1]; 24 h vs 0 h) | Δ (change of microorganism count t = 24 h vs t = 0) [2] | Escherichia coli colony count [2]
CC(=O)OC/C=C(C)/C=C/C=C(C)/C=C/C1=C(C)CCCC1(C)C [retinyl acetate] | 3000 cfu/ml | 2 | +112% | 530000 cfu/ml
O=C(CO)[C@H](O)CO (racemic) [erythrulose] | 3000 cfu/ml |  | +112% | 530000 cfu/ml
